Measured values: patent US20090170812A1, “Transcription factor modulating compounds and methods of use thereof” (priority 2006, published 2009)

Key:
[1] = biological target: LcrF (VirF) (Yersinia pestis, UniProt P28808); assay: biochemical; format: binding, Y. pseudotuberculosis
[2] = biological target: T1, ExsA (Pseudomonas aeruginosa, UniProt P26993); assay: In vitro activity of Mar inhibitors against ExsA: cell-free DNA binding assay; details: purified ExsA from P. aeruginosa, inhibition of DNA binding in vitro
T1 construct: made in house
T1 sequence (P26993 1-278): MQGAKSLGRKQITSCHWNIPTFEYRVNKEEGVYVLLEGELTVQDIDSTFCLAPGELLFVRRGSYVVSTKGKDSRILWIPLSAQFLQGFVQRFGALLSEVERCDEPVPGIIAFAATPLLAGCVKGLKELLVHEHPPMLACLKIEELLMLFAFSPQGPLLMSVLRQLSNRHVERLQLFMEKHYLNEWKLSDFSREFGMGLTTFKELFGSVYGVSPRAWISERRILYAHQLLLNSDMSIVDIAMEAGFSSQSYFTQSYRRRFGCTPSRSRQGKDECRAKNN

[3] = system: P. aeruginosa; assay: Whole cell assay: cytotoxicity of P. aeruginosa toward J774 cells (CytoTox 96, LDH release); details: percent cytotoxicity of treated P. aeruginosa toward J774 cells
[4] = system: Yersinia pseudotuberculosis

Chain of LcrF (VirF) (P28808 whole entry, looked up): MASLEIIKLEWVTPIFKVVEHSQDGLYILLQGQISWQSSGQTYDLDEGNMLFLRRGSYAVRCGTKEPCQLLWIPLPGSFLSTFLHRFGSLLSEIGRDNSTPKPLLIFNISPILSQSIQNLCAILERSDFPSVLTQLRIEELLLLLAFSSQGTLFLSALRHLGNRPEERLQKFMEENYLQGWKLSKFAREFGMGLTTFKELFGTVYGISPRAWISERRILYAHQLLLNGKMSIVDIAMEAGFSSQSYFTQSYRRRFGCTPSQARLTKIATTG

SMILES | EC50 [1] | EC50 [2] | Cytotoxicity at 50 μg/mL Pseudomonas [3] | Cytotoxicity at 50 μg/mL Yersinia [4]
O=C(/C=C/c1ccc(-n2cncn2)cc1)Nc1ccc(-c2nc3ccc([N+](=O)[O-])cc3n2O)cc1 [Compound BI, (E)-N-[4-(1-Hydroxy-6-nitro-1H-benzoimidazol-2-yl)-phenyl]-3-(4-[1,2,4]triazol-1-yl-phenyl)-acrylamide] | > 25.1 µM | < 10 µM | ** (cytotoxicities below 75% at 50 mg/mL) | ** (key: *: percent cytotoxicity above 75% at 50 μg/mL; **: cytotoxicities below 75% at 50 μg/mL)
CCOc1cc2nc(-c3ccc(NC(=O)/C=C/c4ccc(F)cc4)cc3)n(O)c2cc1[N+](=O)[O-] [Compound BJ, (E)-N-[4-(5-Ethoxy-1-hydroxy-6-nitro-1H-benzoimidazol-2-yl)-phenyl]-3-(4-fluoro-phenyl)-acrylamide] | 10.1 to 25 µM | < 10 µM | ** (cytotoxicities below 75% at 50 mg/mL) | ** (key: *: percent cytotoxicity above 75% at 50 μg/mL; **: cytotoxicities below 75% at 50 μg/mL)
Cc1cc2nc(-c3ccc(NC(=O)c4ccc(-c5cnco5)cc4)cc3)n(O)c2cc1[N+](=O)[O-] [Compound BL, N-[4-(1-Hydroxy-5-methyl-6-nitro-1H-benzoimidazol-2-yl)-phenyl]-4-oxazol-5-yl-benzamide] | > 25.1 µM | < 10 µM | ** (cytotoxicities below 75% at 50 mg/mL) | ** (key: *: percent cytotoxicity above 75% at 50 μg/mL; **: cytotoxicities below 75% at 50 μg/mL)
CN(C)c1cc2nc(-c3ccc(NC(=O)/C=C/c4ccc(F)cc4)cc3)n(O)c2cc1[N+](=O)[O-] [Compound BN, N-[4-(5-Dimethylamino-1-hydroxy-6-nitro-1H-benzoimidazol-2-yl)-phenyl]-3-(4-fluorocinnamyl)-amide] | > 25.1 µM | 10.1 to 25 µM | ** (cytotoxicities below 75% at 50 mg/mL) | ** (key: *: percent cytotoxicity above 75% at 50 μg/mL; **: cytotoxicities below 75% at 50 μg/mL)
N#Cc1ccc2nc(-c3ccc(NC(=O)/C=C/c4ccc(F)cc4)cc3)n(O)c2c1 [Compound B] | < 10 µM | < 10 µM | ** (cytotoxicities below 75% at 50 mg/mL) | ** (key: *: percent cytotoxicity above 75% at 50 μg/mL; **: cytotoxicities below 75% at 50 μg/mL)
CC(=O)c1ccc(C(=O)Nc2ccc(-c3nc4ccc(C#N)cc4n3O)cc2)cc1 [Compound C] | > 25.1 µM | < 10 µM | ** (cytotoxicities below 75% at 50 mg/mL) | ** (key: *: percent cytotoxicity above 75% at 50 μg/mL; **: cytotoxicities below 75% at 50 μg/mL)
N#Cc1ccc(C(=O)Nc2ccc(-c3nc4ccc(C#N)cc4n3O)cc2)cc1 [D] | < 10 µM | < 10 µM | * (percent cytotoxicities above 75% at 50 mg/mL) | ** (key: *: percent cytotoxicity above 75% at 50 μg/mL; **: cytotoxicities below 75% at 50 μg/mL)
Cc1ccc(/C=C/C(=O)Nc2ccc(-c3nc4ccc(C#N)cc4n3O)cc2)cc1 [E] | 10.1 to 25 µM | < 10 µM | * (percent cytotoxicities above 75% at 50 mg/mL) | ** (key: *: percent cytotoxicity above 75% at 50 μg/mL; **: cytotoxicities below 75% at 50 μg/mL)
O=C(Nc1ccc(-c2nc3ccc([N+](=O)[O-])cc3n2O)cc1)/C(=C/c1ccccc1)c1ccccc1 [F] | < 10 µM | 10.1 to 25 µM | ** (cytotoxicities below 75% at 50 mg/mL) | * (key: *: percent cytotoxicity above 75% at 50 μg/mL; **: cytotoxicities below 75% at 50 μg/mL)
O=C(Nc1ccc(-c2nc3ccc([N+](=O)[O-])cc3n2O)cc1)/C(F)=C/c1ccccc1 [G] | 10.1 to 25 µM | < 10 µM | ** (cytotoxicities below 75% at 50 mg/mL) | * (key: *: percent cytotoxicity above 75% at 50 μg/mL; **: cytotoxicities below 75% at 50 μg/mL)
COc1ccc(/C=C/C(=O)Nc2ccc(-c3nc4ccc([N+](=O)[O-])cc4n3O)cc2)c(OC)c1 [J] | > 25.1 µM | < 10 µM | * (percent cytotoxicities above 75% at 50 mg/mL) | ** (key: *: percent cytotoxicity above 75% at 50 μg/mL; **: cytotoxicities below 75% at 50 μg/mL)
N#Cc1ccc2nc(-c3ccc(NC(=O)c4ccc(F)cc4)cc3)n(O)c2c1 [K] | > 25.1 µM | 10.1 to 25 µM | * (percent cytotoxicities above 75% at 50 mg/mL) | * (key: *: percent cytotoxicity above 75% at 50 μg/mL; **: cytotoxicities below 75% at 50 μg/mL)
O=C(Nc1ccc(-c2nc3ccc([N+](=O)[O-])cc3n2O)cc1)c1ccc(F)c(F)c1 [P] | 10.1 to 25 µM | 10.1 to 25 µM | * (percent cytotoxicities above 75% at 50 mg/mL) | * (key: *: percent cytotoxicity above 75% at 50 μg/mL; **: cytotoxicities below 75% at 50 μg/mL)
O=C(Nc1ccc(-c2nc3ccc([N+](=O)[O-])cc3n2O)cc1)c1ccc(-c2cncnc2)cc1 [R] | > 25.1 µM | 10.1 to 25 µM | * (percent cytotoxicities above 75% at 50 mg/mL) | ** (key: *: percent cytotoxicity above 75% at 50 μg/mL; **: cytotoxicities below 75% at 50 μg/mL)
Cc1cc(C(=O)Nc2ccc(-c3nc4ccc([N+](=O)[O-])cc4n3O)cc2)ccc1F [S] | 10.1 to 25 µM | 10.1 to 25 µM | * (percent cytotoxicities above 75% at 50 mg/mL) | * (key: *: percent cytotoxicity above 75% at 50 μg/mL; **: cytotoxicities below 75% at 50 μg/mL)
COc1cc(F)ccc1C(=O)Nc1ccc(-c2nc3ccc([N+](=O)[O-])cc3n2O)cc1 [T] | < 10 µM | < 10 µM | * (percent cytotoxicities above 75% at 50 mg/mL) | ** (key: *: percent cytotoxicity above 75% at 50 μg/mL; **: cytotoxicities below 75% at 50 μg/mL)
O=C(Nc1ccc(-c2nc3ncc([N+](=O)[O-])cc3n2O)cc1)c1ccc(F)cc1 [X] | 10.1 to 25 µM | 10.1 to 25 µM | * (percent cytotoxicities above 75% at 50 mg/mL) | * (key: *: percent cytotoxicity above 75% at 50 μg/mL; **: cytotoxicities below 75% at 50 μg/mL)
CC(=O)c1ccc(C(=O)Nc2ccc(-c3nc4ncc([N+](=O)[O-])cc4n3O)cc2)cc1 [Y] | 10.1 to 25 µM | < 10 µM | * (percent cytotoxicities above 75% at 50 mg/mL) | * (key: *: percent cytotoxicity above 75% at 50 μg/mL; **: cytotoxicities below 75% at 50 μg/mL)
